Conditions: 323.14 K, Liquid, Vibrating tube method

CCCCCCC(=O)OCC(COC(=O)CCCCCC)(COC(=O)CCCCCC)COC(=O)CCCCCC [pentaerythritol tetraheptanoate]
Conditions	mass density [kg/m3]
18264 kPa	967.6
18279 kPa	967.6
18292 kPa	967.7
18304 kPa	967.6
18320 kPa	967.6
18332 kPa	967.6
18347 kPa	967.6
18360 kPa	967.7
18373 kPa	967.7
18385 kPa	967.8
18401 kPa	967.7
18413 kPa	967.8
18426 kPa	967.6
18442 kPa	967.8
18454 kPa	967.7
18469 kPa	967.7
18482 kPa	967.7
18495 kPa	967.7
18511 kPa	967.7
18920 kPa	967.9
18933 kPa	968
18964 kPa	968.1
19110 kPa	968.3
19518 kPa	968.3
19532 kPa	968.3
19550 kPa	968.4
19962 kPa	968.7
20010 kPa	968.7
20615 kPa	969.1
20951 kPa	969.3
20968 kPa	969.2
21002 kPa	969.4
21114 kPa	969.2
21149 kPa	969.4
21166 kPa	969.4
21187 kPa	969.4
21204 kPa	969.5
21222 kPa	969.3
21243 kPa	969.4
21261 kPa	969.4
21812 kPa	969.9
21889 kPa	969.8
21912 kPa	969.9
22010 kPa	969.9
22028 kPa	970
22051 kPa	969.9
22255 kPa	970
22294 kPa	970.1
22673 kPa	970.3
22693 kPa	970.2
22738 kPa	970.5
22934 kPa	970.5
22955 kPa	970.5
22976 kPa	970.5
23001 kPa	970.4
23022 kPa	970.6
23064 kPa	970.5
23111 kPa	970.6
23132 kPa	970.6
23157 kPa	970.6
23178 kPa	970.5
23200 kPa	970.6
23225 kPa	970.5
23246 kPa	970.5
23268 kPa	970.7
23294 kPa	970.7
23315 kPa	970.7
23358 kPa	970.7
23384 kPa	970.8
23431 kPa	970.8
23453 kPa	970.8
23474 kPa	970.7
23496 kPa	970.9
23522 kPa	970.8
23544 kPa	970.8
23566 kPa	970.8
23592 kPa	970.8
23614 kPa	970.8
23755 kPa	971
23777 kPa	970.9
23805 kPa	971.1
23827 kPa	971
23853 kPa	970.9
23875 kPa	971
23898 kPa	971.1
23921 kPa	971
23948 kPa	971
24439 kPa	971.4
24490 kPa	971.3
24592 kPa	971.5
24645 kPa	971.6
24693 kPa	971.5
24722 kPa	971.5
24746 kPa	971.5
24799 kPa	971.6
24824 kPa	971.6
24848 kPa	971.6
24874 kPa	971.5
24903 kPa	971.6
24928 kPa	971.6
24957 kPa	971.7
24981 kPa	971.5
25006 kPa	971.7
25031 kPa	971.8
25061 kPa	971.7
25387 kPa	971.9
25413 kPa	972
25633 kPa	972.1
25717 kPa	972
25828 kPa	972
25860 kPa	972.3
25888 kPa	972.3
